According to BindingDB's records for doi:10.7270/Q2DF6PMF (Nmmlsc, 2007):

These compounds were tested against T1, N-formyl peptide receptor 2 (Homo sapiens, UniProt P25090) (assay: FPRL1 binding inhibitor potency, dose response, cell-based, FPR counter-screen, fluorescent ligand (AID 520)). Details: not given.
T1 sequence (P25090 whole entry): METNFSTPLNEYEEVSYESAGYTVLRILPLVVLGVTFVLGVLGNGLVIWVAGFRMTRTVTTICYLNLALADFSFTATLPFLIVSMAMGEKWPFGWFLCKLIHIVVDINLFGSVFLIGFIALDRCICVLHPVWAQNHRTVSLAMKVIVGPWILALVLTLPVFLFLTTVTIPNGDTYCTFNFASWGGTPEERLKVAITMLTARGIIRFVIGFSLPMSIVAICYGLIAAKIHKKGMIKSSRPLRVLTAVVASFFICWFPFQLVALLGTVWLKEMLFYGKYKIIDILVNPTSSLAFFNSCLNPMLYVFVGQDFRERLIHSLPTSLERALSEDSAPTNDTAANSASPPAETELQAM
`COc1cc(C2C(C(=O)c3ccco3)C(=O)C(=O)N2CCc2ccccc2)ccc1O` (configuration not stated) [3-(furan-2-carbonyl)-4-hydroxy-2-(4-hydroxy-3-methoxyphenyl)-1-(2-phenylethyl)-2H-pyrrol-5-one] was tested, and the IC50 was greater than 66.7 µM and the Ki was greater than 40.3 µM. `CCCC(=O)Nc1c2c(nn1-c1ccc(OC)cc1)C[S+]([O-])C2` (configuration not stated) [MLS000086302] was tested, and the IC50 was greater than 66.7 µM. `CC1=C(C(=O)OC(C)C)[C@]2(C(=O)N(CC(N)=O)c3ccccc32)C(C#N)C(=N)O1` (stereo partly drawn) [(3R)-6'-amino-1-(2-amino-2-keto-ethyl)-5'-cyano-2-keto-2'-methyl-spiro[indoline-3,4'-pyran]-3'-carboxylic acid isopropyl ester] gave an IC50 greater than 66.7 µM and a Ki greater than 40.3 µM. Compound `CN1CCN(CCCNC(=O)Nc2cccc3ccccc23)CC1` [1-[3-(4-methyl-1-piperazinyl)propyl]-3-(1-naphthalenyl)urea] has an IC50 greater than 66.7 µM. In the case of `COc1cccc(OC)c1C(=O)C(C#N)c1nc2ccccc2[nH]1` (configuration not stated) [SMR000024183], the IC50 is reported as greater than 66.7 µM and the Ki is reported as greater than 40.3 µM. Work on `COc1ccc(C2C(C(=O)c3ccccc3)C(=O)C(=O)N2CC(C)O)c(OC)c1` (configuration not stated) [(4Z)-5-(2,4-dimethoxyphenyl)-4-[hydroxy(phenyl)methylene]-1-(2-hydroxypropyl)pyrrolidine-2,3-quinone] yielded an IC50 greater than 66.7 µM and a Ki greater than 40.3 µM. `COCCCN1C(=O)C(=O)C(C(=O)c2ccccc2)C1c1ccc2c(c1)OCO2` (configuration not stated) [(4E)-5-(1,3-benzodioxol-5-yl)-1-(3-methoxypropyl)-4-[oxidanyl(phenyl)methylidene]pyrrolidine-2,3-dione] was tested, and the IC50 was greater than 66.7 µM and the Ki was greater than 40.3 µM. `O=C1C(=O)N(CC2CCCO2)C(c2cccnc2)C1C(=O)c1ccco1` (configuration not stated) [3-(furan-2-carbonyl)-4-hydroxy-1-(oxolan-2-ylmethyl)-2-pyridin-3-yl-2H-pyrrol-5-one] gave an IC50 greater than 66.7 µM and a Ki greater than 40.3 µM. `O=C(O)CCCNc1cc(N2CCC3(CC2)OCCO3)c2noc3c2c1C(=O)c1ccccc1-3` [4-{[3-(1,4-dioxa-8-azaspiro[4.5]dec-8-yl)-6-oxo-6H-anthra[1,9-cd]isoxazol-5-yl]amino}butanoic acid] gave an IC50 of 10.9 µM. `CCOC(=O)c1c(C)[nH]c(C=Nc2ccccc2)c1O` [(5Z)-5-(anilinomethylidene)-2-methyl-4-oxo-1H-pyrrole-3-carboxylic acid ethyl ester] gave an IC50 greater than 66.7 µM. With `CCOC(=O)Cc1cc(=O)n2[nH]c(C)c(-c3ccccc3)c2n1` the IC50 was greater than 66.7 µM. `CCOc1ccc(C(=O)C2C(=O)C(=O)N(c3nc(C)c(C)s3)C2c2ccco2)cc1` (configuration not stated) [(4Z)-1-(4,5-dimethyl-1,3-thiazol-2-yl)-4-[(4-ethoxyphenyl)-hydroxymethylidene]-5-(furan-2-yl)pyrrolidine-2,3-dione] gave an IC50 greater than 66.7 µM and a Ki greater than 40.3 µM. Compound `CSCCC1c2c(-c3cccs3)n[nH]c2OC(=N)C1C#N` (configuration not stated) [6-azanyl-4-(2-methylsulfanylethyl)-3-thiophen-2-yl-2,4-dihydropyrano[2,3-c]pyrazole-5-carbonitrile] has an IC50 greater than 66.7 µM and a Ki greater than 40.3 µM. `Cc1cc(SCC(N)=O)nc(SCC(=O)c2ccccc2)n1` [2-(6-methyl-2-phenacylsulfanylpyrimidin-4-yl)sulfanylacetamide] gave an IC50 greater than 66.7 µM. For `Cc1cccc(OCC(=O)Nc2cc(C)ccc2O)c1` [MLS000100112], the IC50 was greater than 66.7 µM. In the case of `O=C1C(=O)N(Cc2ccco2)C(c2ccccc2)C1C(=O)c1cccs1` (configuration not stated) [1-(2-furanylmethyl)-4-hydroxy-3-[oxo(thiophen-2-yl)methyl]-2-phenyl-2H-pyrrol-5-one], the IC50 is reported as greater than 66.7 µM and the Ki is reported as greater than 40.3 µM. With `O=C(NCCCN1CCN(c2ccc(F)cc2)CC1)c1cccc(N2CCCC2=O)c1` [MLS000046779] the IC50 was greater than 66.7 µM. `COc1ccc2ccccc2c1C1CC(=O)N2CN(C3CCCCC3)CSC2=C1C#N` (configuration not stated) [3-cyclohexyl-8-(2-methoxynaphthalen-1-yl)-6-oxo-2,4,7,8-tetrahydropyrido[2,1-b][1,3,5]thiadiazine-9-carbonitrile] was tested, and the IC50 was greater than 66.7 µM. Work on `CCN(C(=O)Cc1c(C(=O)O)[nH]c2ccccc12)c1cc(OC)ccc1OC` yielded an IC50 greater than 66.7 µM. For `CCC(NC(=O)Nc1cc(OC)c(OC)c(OC)c1)(C(F)(F)F)C(F)(F)F` [1-(3,4,5-trimethoxyphenyl)-3-[1,1,1-tris(fluoranyl)-2-(trifluoromethyl)butan-2-yl]urea], the IC50 was greater than 66.7 µM. Compound `COc1cc(C2C(C(=O)c3ccc(C)o3)C(=O)C(=O)N2CCc2ccccc2)ccc1O` (configuration not stated) [2-(3-methoxy-4-oxidanyl-phenyl)-3-(5-methylfuran-2-yl)carbonyl-4-oxidanyl-1-(2-phenylethyl)-2H-pyrrol-5-one] has an IC50 greater than 66.7 µM and a Ki greater than 40.3 µM. For `COc1ccc(-c2cn3cccnc3n2)cc1NC(=O)C1CCCC1` [MLS000045945], the IC50 was greater than 66.7 µM. `CCOc1ccccc1NC(=O)CSc1nccn1-c1ccccc1` [MLS000090721] showed an IC50 greater than 66.7 µM. `O=C(NCCN1CCOCC1)NC1(C(F)(F)F)Oc2ccc(Cl)cc2O1` (configuration not stated) gave an IC50 greater than 66.7 µM. In the case of `Cc1ccc(NC(=O)C2C(=O)N(CCO)C3(C)CC2c2ccccc2O3)cc1` (configuration not stated) [SMR000015827], the IC50 is reported as greater than 66.7 µM. `CC1(C)S[C@@H]2[C@H](NC(=O)Cc3ccccc3)C(=O)N2[C@H]1C(=O)O` [MLS000069426] was tested, and the IC50 was greater than 66.7 µM. Compound `Cc1nc2c(C#N)c(C)[nH]n2c(=O)c1Cc1ccccc1` has an IC50 greater than 66.7 µM. For `O=C(Nc1ccc(Nc2ccccc2)cc1)c1ccc(Br)o1` [5-bromanyl-N-(4-phenylazanylphenyl)furan-2-carboxamide], the IC50 was greater than 66.7 µM. In the case of `COc1ccc2nc(Nc3nc(C)c(C(C)=O)s3)sc2c1` [1-[2-[(6-methoxy-1,3-benzothiazol-2-yl)amino]-4-methyl-1,3-thiazol-5-yl]ethanone], the IC50 is reported as greater than 66.7 µM. `CCCCn1c(NC(=O)CC)c(C#N)c2nc3ccccc3nc21` [MLS000079918] gave an IC50 greater than 66.7 µM. Work on `COc1ccc(OC)c(C2C(C(=O)c3cccs3)C(=O)C(=O)N2c2cc(C)on2)c1` (configuration not stated) [2-(2,5-dimethoxyphenyl)-1-(5-methyl-1,2-oxazol-3-yl)-4-oxidanyl-3-thiophen-2-ylcarbonyl-2H-pyrrol-5-one] yielded an IC50 greater than 66.7 µM and a Ki greater than 40.3 µM. For `CCOc1cccc(C(=O)C2C(=O)C(=O)N(CCOC)C2c2ccc(C)o2)c1` (configuration not stated) [(4Z)-4-[(3-ethoxyphenyl)-hydroxymethylidene]-1-(2-methoxyethyl)-5-(5-methyl-2-furanyl)pyrrolidine-2,3-dione], the IC50 was greater than 66.7 µM and the Ki was greater than 40.3 µM. In the case of `CCc1ccccc1NC(=O)C(C#N)Cc1cccnc1` (configuration not stated) [2-Cyano-N-(2-ethyl-phenyl)-2-pyridin-3-ylmethyl-acetamide], the IC50 is reported as greater than 66.7 µM. `COCc1cc(C2C(C(=O)c3ccco3)C(=O)C(=O)N2CCOCCO)ccc1O` (configuration not stated) [3-(furan-2-carbonyl)-4-hydroxy-1-[2-(2-hydroxyethoxy)ethyl]-2-[4-hydroxy-3-(methoxymethyl)phenyl]-2H-pyrrol-5-one] showed an IC50 greater than 66.7 µM and a Ki greater than 40.3 µM. Compound `COc1ccc(OC)c(C2C(C(=O)c3cc4ccccc4o3)C(=O)C(=O)N2c2cc(C)on2)c1` (configuration not stated) [3-(1-benzofuran-2-carbonyl)-2-(2,5-dimethoxyphenyl)-4-hydroxy-1-(5-methyl-1,2-oxazol-3-yl)-2H-pyrrol-5-one] has an IC50 greater than 66.7 µM and a Ki greater than 40.3 µM. With `CCCOc1ccc(C2C(C(=O)c3ccc(C)o3)C(=O)C(=O)N2Cc2cccnc2)cc1` (configuration not stated) [3-(5-methylfuran-2-yl)carbonyl-4-oxidanyl-2-(4-propoxyphenyl)-1-(pyridin-3-ylmethyl)-2H-pyrrol-5-one] the IC50 was greater than 66.7 µM and the Ki was greater than 40.3 µM. With `Clc1ccc(Cc2nn3c(-c4ccncc4)nnc3s2)cc1` [6-(4-chlorobenzyl)-3-(4-pyridyl)-[1,2,4]triazolo[3,4-b][1,3,4]thiadiazole] the IC50 was greater than 66.7 µM. Compound `COc1ccc(C)cc1NC(=O)C1CCCCC1C(=O)O` (configuration not stated) [2-[(2-methoxy-5-methyl-phenyl)carbamoyl]cyclohexane-1-carboxylic acid] has an IC50 greater than 66.7 µM. In the case of `COc1ccc(C2C(C(=O)c3ccco3)C(=O)C(=O)N2Cc2cccnc2)cc1OC` (configuration not stated) [2-(3,4-dimethoxyphenyl)-3-(furan-2-carbonyl)-4-hydroxy-1-(pyridin-3-ylmethyl)-2H-pyrrol-5-one], the IC50 is reported as greater than 66.7 µM and the Ki is reported as greater than 40.3 µM. `CCC(C)(C(=O)NC1CCCC1)N(CC1CCCO1)C(=O)c1ccc2c(c1)OCO2` (configuration not stated) [MLS000095004] showed an IC50 greater than 66.7 µM. `CCCN=C(S)Nc1ccc(Nc2ccccc2)cc1` [1-(4-anilinophenyl)-3-propyl-thiourea] gave an IC50 greater than 66.7 µM. With `COc1ccc(-c2nnc(Nc3nc4c(OC)cccc4s3)o2)cc1` [MLS000045458] the IC50 was greater than 66.7 µM. Compound `COc1ccc(-c2cc(C(F)(F)F)nc(NC3CCCC3)n2)cc1OC` [MLS000086438] has an IC50 greater than 66.7 µM. In the case of `CCOc1cc(C2C(C(=O)c3ccco3)C(=O)C(=O)N2CCc2ccccc2)ccc1O` (configuration not stated) [2-(3-ethoxy-4-hydroxyphenyl)-3-(furan-2-carbonyl)-4-hydroxy-1-(2-phenylethyl)-2H-pyrrol-5-one], the IC50 is reported as greater than 66.7 µM and the Ki is reported as greater than 40.3 µM. `O=S(=O)(c1c[nH]cn1)N1CCc2ccccc21` [SMR000026956] gave an IC50 greater than 66.7 µM. Work on `Cc1nc2c(-c3ccc(F)cc3)c(C)nn2c(C)c1CCC(=O)NC(C)CCc1ccco1` (configuration not stated) [3-[3-(4-fluorophenyl)-2,5,7-trimethyl-6-pyrazolo[1,5-a]pyrimidinyl]-N-[4-(2-furanyl)butan-2-yl]propanamide] yielded an IC50 greater than 66.7 µM. Compound `COc1cc(-n2nc(C)c3c2OC(=N)C(C#N)C3c2ccccc2)c(Cl)c(Br)c1O` (configuration not stated) [6-amino-1-(3-bromo-2-chloro-4-hydroxy-5-methoxyphenyl)-3-methyl-4-phenyl-1,4-dihydropyrano[2,3-c]pyrazole-5-carbonitrile] has an IC50 greater than 66.7 µM and a Ki greater than 40.3 µM. Compound `Cc1[nH]n2c(=O)c(C#N)c(-c3ccccc3)nc2c1-c1ccccc1` [SMR000047798] has an IC50 greater than 66.7 µM.

Same assay, conditions: inactive by the depositor's call
`CCCC(=O)Nc1cc(-c2cn3cccnc3n2)ccc1OC` [MLS000045942] was tested, and the IC50 was 22.8 µM.
